ChEMBL document CHEMBL2417511, “Probes for narcotic receptor mediated phenomena. 48. C7- and C8-substituted 5-phenylmorphan opioids from diastereoselective alkylation” (Eur J Med Chem, 2013)
pKi: −log10 of the molar value.

What was measured:
Assay type in all cases: cell-based
[1] = molecular target: Delta-type opioid receptor (Homo sapiens, UniProt P41143); experiment: Displacement of [3H]DADLE from human delta opioid receptor expressed in CHO cells after 2 hrs by liquid scintillation counting
Delta-type opioid receptor, sequence (P41143 whole entry): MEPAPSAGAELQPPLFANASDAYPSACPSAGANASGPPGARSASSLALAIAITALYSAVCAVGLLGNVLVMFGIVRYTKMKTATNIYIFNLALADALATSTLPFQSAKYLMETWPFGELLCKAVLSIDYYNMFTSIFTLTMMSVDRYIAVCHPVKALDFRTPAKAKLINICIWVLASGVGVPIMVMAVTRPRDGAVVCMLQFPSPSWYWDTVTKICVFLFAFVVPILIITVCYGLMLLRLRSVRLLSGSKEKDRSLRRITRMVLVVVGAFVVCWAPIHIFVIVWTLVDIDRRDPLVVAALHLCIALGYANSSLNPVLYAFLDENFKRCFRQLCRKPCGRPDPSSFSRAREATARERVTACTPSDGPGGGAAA

Mu-type opioid receptor = Mu-type opioid receptor (Homo sapiens, UniProt P35372); experiment: Displacement of [3H]DAMGO from human mu opioid receptor expressed in CHO cells after 2 hrs by liquid scintillation counting
Mu-type opioid receptor, sequence (P35372 whole entry): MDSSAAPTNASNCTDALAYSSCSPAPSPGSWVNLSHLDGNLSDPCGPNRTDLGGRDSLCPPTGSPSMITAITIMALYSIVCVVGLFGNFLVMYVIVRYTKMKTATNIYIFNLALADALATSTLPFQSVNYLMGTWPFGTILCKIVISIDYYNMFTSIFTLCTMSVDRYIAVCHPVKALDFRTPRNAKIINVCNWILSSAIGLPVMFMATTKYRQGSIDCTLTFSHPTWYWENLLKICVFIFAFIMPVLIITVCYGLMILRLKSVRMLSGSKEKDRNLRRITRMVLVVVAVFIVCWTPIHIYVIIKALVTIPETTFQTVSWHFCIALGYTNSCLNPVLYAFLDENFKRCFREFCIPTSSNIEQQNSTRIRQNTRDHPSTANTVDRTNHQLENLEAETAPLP

[2] = molecular target: Kappa-type opioid receptor (Homo sapiens, UniProt P41145); experiment: Displacement of [3H]U69,593 from human kappa opioid receptor expressed in CHO cells after 2 hrs by liquid scintillation counting
Kappa-type opioid receptor, sequence (P41145 whole entry): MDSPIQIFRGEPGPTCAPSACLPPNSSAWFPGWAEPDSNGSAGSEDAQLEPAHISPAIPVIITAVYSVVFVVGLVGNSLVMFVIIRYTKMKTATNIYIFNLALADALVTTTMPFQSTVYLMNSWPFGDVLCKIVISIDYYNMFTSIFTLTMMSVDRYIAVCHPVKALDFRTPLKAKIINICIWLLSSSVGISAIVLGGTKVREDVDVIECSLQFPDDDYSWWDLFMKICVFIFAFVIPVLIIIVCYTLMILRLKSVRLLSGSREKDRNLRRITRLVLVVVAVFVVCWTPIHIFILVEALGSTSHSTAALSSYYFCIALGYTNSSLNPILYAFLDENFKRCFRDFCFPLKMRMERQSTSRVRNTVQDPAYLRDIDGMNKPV

`CN1CC[C@]2(c3cccc(O)c3)C[C@H](O)C[C@@H]1C2` showed a pKi [1] of 5.71, a pKi (Mu-type opioid receptor) of 7.66 and a pKi [2] of 5.91.
